pIC50: −log10 of the molar value.
Assays:
[1] = Octanol/water partition coefficient, shake-flask method and UV/Vis; settings: octanol/water, 21 °C
Protocol: Octanol/water partition coefficients (log Pow ). Partition coefficients (P ow; IUPAC: K D partition constant[53]), defined as P ow=corg/caq, where corg and caq are molar concentrations of the selected compound in the organic and aqueous phase, respectively, were determined by the shake‐flask method and UV/Vis measurements.[[16a], [54]] Deionized water and octan‐1‐ol were vigorously stirred for 24 h, to enable saturation of both phases, then separated by centrifugation. A stock solution of the selected Fe compound (ca. 2 mg) was prepared by first adding acetone (50 μL, to help solubilization), followed by water‐saturated octanol (2.5 mL). The solution was diluted with water‐saturated octanol (ca. 1 : 3 v/v ratio, cFe2 ≈10^−4 M, so that 1.5≤A≤2.0 at λ max) and its UV/Vis spectrum was recorded ( A0/org ). An aliquot of the solution (V org=1.2 mL) was transferred into a test tube and octanol‐saturated water (V org=V aq=1.2 mL) was added. The mixture was vigorously stirred for 30 min at 21 °C then centrifuged (RCF 805, 5 min; Hettich EBA 8G). The UV/Vis spectrum of the organic phase was recorded ( Af/org ) and the partition coefficient was calculated as P ow= Af/org /( A0/org g− Af/org ) where A0/org and Af/org are the absorbance in the organic phase before and after partition with the aqueous phase, respectively.[53] For [2B]BF4, [2C]Cl and [3F]CF3SO3 an inverse procedure was followed, starting from a solution of the compound in octanol‐saturated water. The partition coefficient was calculated as P ow=( A0/aq − Af/aq )/ Af/aq where A0/aq and Af/aq are the absorbance in the aqueous phase before and after partition with the organic phase, respectively.

[2] = Carbon monoxide release in 5 % MeOH aqueous solution, headspace GC-TCD; format: physicochemical; settings: 37 °C; for eq. CO released: eqCO = nCO/nFe; for % residual complex: 48 h, calculated as [1 – Σ(eqCO)/3]∙100
Protocol: Carbon monoxide release. A stock solution was prepared by dissolving the selected Fe compound (ca. 10 mg) in MeOH (0.50 mL) then diluting with H2O up to 10.0 mL total volume (5 % v/v MeOH). Next, 3.20 mL of the solution (n Fe ca. 6 ⋅ 10^−3 mmol) and a 7x2 mm stir bar were transferred into a 4‐mL screw top vial (1.72 mL neat gas phase volume). The mixture was sealed with a screw cap with a PTFE/silicone septum and heated at 37 °C for 24 h under stirring. Afterwards, the headspace was sampled with a gas tight microsyringe ([…]) and analysed by GC‐TCD. Therefore, the vial was vented, sealed and heated for further 24 h, and GC‐TCD analysis was repeated. The amount of released CO (νCO, mmol) was calculated based on a calibration curve obtained from analyses of known air/CO mixtures (1–10 % v/v), and the number of equivalents released over a 24 h period refers to the initial amount of compound (eqCO=n CO/n Fe). The residual amount of starting diiron complex after 48 h was calculated by assuming the release of 3 equivalents of CO per mole and the total amount of CO released.

[3] = Stability in cell culture medium (DMEM) at 37 °C by 1H NMR; format: physicochemical; settings: DMEM-d (6.6 % CD3OD)
Protocol: Next, the stability of the diiron compounds in a cell culture medium (DMEM) solution at 37 °C, over a shorter time range (24 h), was assessed by ^1H NMR.
Stability in water (D2O) and cell culture medium. The procedures are described in the Supporting Information, and data are collected in Table S3.
Table S3. Stability of diiron complexes in D2O, D2O/CD3OD, DMSO-d6/D2O and cell culture medium (DMEM-
d/CD3OD) solution at 37 °C calculated by 1H NMR (Me2SO2 internal standard).
% starting material (72 h) % starting material
Compound D O D O/CD OD DMSO-d /D O DMEM-d
[a] X = I for the stability in D 2O, X = CF3SO3 for the stability in cell culture medium. [b] Stability in D 2O and […]

[4] = test system: human cancer cell line panel (2008, HCT‐15, PSN‐1, MCF‐7, A375); test: MTT assay, average over the human cancer cell line panel; format: cell-based; settings: average over tested cancer cell lines, 72 h
Protocol: The diiron complexes [2A]^+, [2C–E]^+, [3F–G]^+, [5H]^+ (as CF3SO3 salts) and [2B]^+, [4G]^+ (as BF4 salts) were tested for their cytotoxic potential by means of the MTT assay, as reported in the Experimental Section. The most convenient counter anion in terms of preparation and handling/storage was chosen in each case; in particular, [2C]CF3SO3 was included in the study, while [2C]Cl was excluded, being highly moisture sensitive and thus affecting the accuracy of the weighting operation. The in‐house human cancer cell line panel contains examples of ovarian (2008), colon (HCT‐15), pancreatic (PSN‐1), and breast (MCF‐7) cancers as well as of melanoma (A375). Cisplatin was used as a reference and tested under the same experimental conditions. In addition, the cytotoxicity was also evaluated for shorter time of exposure (24 h) towards PSN‐1 cancer cells (Table S5).
MTT assay. The growth inhibitory effect towards tumour cells was evaluated by means of MTT assay as previously described.[57] Briefly, 3–8×10^3 cells/well, dependent upon the growth characteristics of the cell line, were seeded in 96‐well microplates in growth medium (100 μL). After 24 h, the medium was removed and replaced with a fresh one containing the compound to be studied at the appropriate concentration. Triplicate cultures were established for each treatment. After 24 or 72 h, each well was treated with 10 μL of a 5 mg/mL MTT saline solution, and following 5 h of incubation, 100 μL of a sodium dodecyl sulfate (SDS) solution in HCl 0.01 M were added. After an overnight incubation, cell growth inhibition was detected by measuring the absorbance of each well at 570 nm using a Bio‐Rad 680 microplate reader. Mean absorbance for each drug dose was expressed as a percentage of the control untreated well absorbance and plotted against drug concentration. IC50 values, the drug concentrations that reduce the mean absorbance at 570 nm to 50 % of those in the untreated control wells, were calculated by the four‐parameter logistic (4‐PL) model. Evaluation was based on means from at least four independent experiments.

| Log P ow [1] | Log P ow ([1]; listed as [5H]^+) | eq. CO released ([2]; 0-24 h) | eq. CO released ([2]; 24-48 h) | % residual complex [2] | % starting material (24 h) [3] | Log P ow ([1]; listed as [4G]^+) | Log P ow ([1]; listed as [2A]^+) | Substance | pIC50 [4] |
| --- | --- | --- | --- | --- | --- | --- | --- | --- | --- |
| 0.1±0.1 | – | – | – | – | 85% | ≈ 0 | – | [Fe2Cp2(CO)2(μ‐CO){μ‐CNEt(2‐naphthyl)}]BF4 [[4G]BF4] | – |
| 0.0±0.1 | – | – | – | – | 86% | – | ≈ 0 | [Fe2Cp2(CO)2(μ‐CO){μ‐CNMe(1H‐indol‐6‐yl)}]CF3SO3 [[2A]CF3SO3] | – |
| −1.01±0.02 | – | 0.22 ± 0.06 eq. | 0.15 ± 0.01 eq. | 87-88% | – | – | – | [Fe2Cp2(CO)2(μ‐CO){μ‐CNMe(CH2CHCH2)}]X [[3F]CF3SO3] | < 4.00 |
| – | – | – | – | – | 88% | – | – | [Fe2Cp2(CO)2(μ‐CO){μ‐CNMe(CH2PO3Et2)}]X [[2B]BF4] | < 4.00 |

Further lines, the substance ahead of its results:

| Substance | Log P ow [1] | Log P ow ([1]; listed as [5H]^+) | eq. CO released ([2]; 0-24 h) | eq. CO released ([2]; 24-48 h) | % residual complex [2] | % starting material (24 h) [3] | Log P ow ([1]; listed as [4G]^+) | Log P ow ([1]; listed as [2A]^+) | pIC50 [4] |
| --- | --- | --- | --- | --- | --- | --- | --- | --- | --- |
| [Fe2Cp2(CO)2(μ‐CO){μ‐CNBn2}]X [[5H]CF3SO3] | 0.2±0.02 | ≈ 0 | 0.29 ± 0.06 eq. | 0.27 ± 0.02 eq. | 80-84% | 75% | – | – | – |
| [Fe2Cp2(CO)2(μ‐CO){μ‐CNMe(4‐C6H4OMe)}]CF3SO3 [[2D]CF3SO3] | −0.25±0.04 | – | – | – | – | 77% | – | – | 4.78 |
| [Fe2Cp2(CO)2(μ‐CO){μ‐CNMe(C6H11)}]X [[2C]CF3SO3] | −0.46±0.02 | – | 0.25 ± 0.02 eq. | 0.23 ± 0.04 eq. | 83-86% | 85% | – | – | 4.76 |
